Reference: patent US6268397A, “Use of (α-aminomethyl-3,4-dichlorobenzyl) thioacetamide derivatives for inhibiting dopamine reuptake and new compounds for this use” (Laboratoire. L. Lafon, priority 1995, dated 2001)
Counter-ions that a name gives are not always drawn. Like-named read-outs stand apart in the source and are kept apart here.

Legend:
[1] = biological target: T1, site of dopamine reuptake (Rattus norvegicus, UniProt P23977); assay: Inhibition of binding at the site of dopamine reuptake in vitro in rat striatum ([3H]mazindol); set-up: species or system rat (male, CD Sprague-Dawley); details: pH 7.7, mean of three tests
T1 construct: The striata are removed immediately and then stored at -80° C. until used; from tissue; host or cells: rat striatum membranes (male CD Sprague-Dawley)
Protocol: Inhibition Of Binding At the Site of Dopamine Reuptake In Vitro In Rat Striatum
Rats, (male, CD Sprague-Dawley, 200-250 g) are sacrificed by decapitation. The striata are removed immediately and then stored at -80° C. until used. On the day of the manipulation, the striata are thawed, coated with buffer and then brought into suspension. This suspension is then poured into the centrifuge tubes, made up to 10 ml with pH 7.7 buffer (50 mM Tris (HCl), 120 mM NaCl, 5 mM KCl) and thereafter centrifuged at 20,000 rpm for 15 minutes. The pellet is resuspended in 10 ml of buffer and is then subjected to a second centrifugation (20,000 rpm for 15 minutes). The above procedure is repeated, so that the homogenate undergoes a third centrifugation identical to the previous two. The pellet thereby obtained is suspended in a few ml of buffer and then homogenized. The membrane suspension is then diluted in a requisite volume. Increasing concentrations of the test compounds dissolved in the buffer are distributed. Aliquots of the membrane suspension are then added. The radioactive ligand ([^3 H]mazindol), used as a label of the type of site studied, is then distributed manually in the tubes, which are thereafter incubated (final volume 1 ml).
The reaction is stopped by filtration through a Harvester system (Whatman GF/B filter strip). The filter strip is then washed three times with 5 ml of buffer before being placed in an automatic cutting system.
The cut filters fall into counting vials, and 4 ml of scintillation fluid are distributed automatically by the system. Each sample is subjected to counting of the radioactivity using a liquid scintillation counter.
Three series of tests (test 1, test 2 and test 3) are carried out with each compound for determination of the IC50, each determination being carried out on two different samples.
The specific binding is defined as the difference between the total binding and the non-specific binding (displace by an excess of non-radioactive ligand). The values obtained in counts per minute (cpm) are then converted into disintegrations per minute (dpm) in accordance with the efficiency of the counter.
The IC50 is defined as the concentration of the substance under study needed to displace 50% of the specifically bound radioactive label.
The experimental data emanating from the liquid scintillation counter (Kontron) are stored on diskette, managed by a program (Convert) and then analysed by means of Ligand* software, which calculates the 50% inhibitory concentration (IC50) and the inhibition constant Ki [formula]
where [L] represents the concentration of the radioactive ligand and Kd the dissociation constant of this same ligand. (The values of the IC50 and of Ki are inversely proportional to the affinity of the product under study for the binding site.

mice [2] = assay: Toxicity in mice via the i.p. route (LD0, LD100); format: in vivo
From the text: The LD0 and LD100 values in mice via the i.p. route are also given in this table.

[3] = test system: anaesthetized rat striatum; assay: Extracellular levels of neuro-mediators and metabolites in anaesthetized rat striatum (intracerebral microdialysis); format: in vivo, rat (male, Sprague-Dawley CD); details: doses of 16, 32 or 64 mg/kg i.p.; for 3-methoxytyramine (3MT) concentration in the dialysate / dopamine concentration in the dialysate: hydrochloride
Protocol: Effect On The Extracellular Levels Of Neuro-Mediators And Metabolites In Anaesthetized Rat Striatum (Intracerebral Microdialysis)
This determination is obtained by high performance liquid chromatography coupled with and electro-chemical detection.
HPLC: Spherisorb cartridge, ODS-2 (5 μm), L=[…], =4 mm, Merck. Mobile phase: 0.1 M potassium phosphate, 0.1 M citric acid, octane-sulphonic acid 50 mg/l, 0.1 mM EDTA, 4% methanol, ph 4.80 , pump output 0.9 ml/min
electrochemical detection: BAS detector, LC-4C, +750 mV
analyser: Millenium, Waters
Rats (male, Sprague-Dawley CD, Charles River, 280-300 g) anaesthetized with chloral hydrate (400 mg/kg, i.p.) are placed in a stereotactic apparatus. The micro-dialysis probe (CMA/11 L=3 mm, =0.24 mm, Carnegie) is implanted according to the coordinates of the Paxinos and Watson atlas in the anterior portion of the left striatum: I=10, L=2.4, H=-6.1.
Ringer's fluid (CaCl2 =2.4 mM, KCl=4 mM, NaCl=147 mM) is perfused at 2 μl/min into the probe. The dialysates collected every 20 minutes are cooled (to approximately 6° C.) and then analysed.
After one hour of collection, groups of 6 rats receive intraperitoneally in a volume of 5 ml/kg:
either an injection of isotonic sodium chloride solution,
or the test compound dissolved in distilled water at doses of 16, 32 or 64 mg/kg.
In the dialysate, the dopamine (DA), 3,4-dihydroxyphenylacetic acid (DOPAC), homovanillic acid (HVA) and 3-methoxytyramine (3MT) concentrations are measured by electrochemical detection and quantified with respect to a standard series, and are corrected in accordance with the efficiency of the probe determined in vitro before each test.
Only tests in which the probes display an efficiency of more than 5% are taken into account.

rats = assay: Induction of stereotyped movements in rats; format: in vivo, rat (male, CD, Sprague-Dawley); details: i.p.
Protocol: Induction of Stereotyped Movements in Rats
Groups of 6 rats (male, CD, Sprague-Dawley, Charles River, 160-200 g) receive CRL 41 789 or CRL 41 790 intraperitoneally in distilled water (5 ml/kg), and are immediately place in Flexiglas cages (20×10×10cm). The stereotyped movements are scored from 0 to 3 every 10 minutes until they have disappeared.

mice [4] = assay: Locomotor activity of mice; format: in vivo, mice (male, NMRI); details: recorded over 30 minutes
Protocol: Effects on the Locomotor Activity of Mice
Half an hour after receiving CRL 41 789 or CRL 41 790 intraperitoneally in distilled water, groups of 6 to 24 mice (male, NMRI, C.R.E. Janvier, 18-22 g) are placed individually in crossed-beam activity cages, where their locomotor activity (number of rays crossed) is recorded over 30 minutes.

mice [5] = assay: Test of "behavioural despair" in mice; format: in vivo, mice (male, CD1)
From the text: Effects on the Test of "Behavioural Despair"in Mice
Half an hour after receiving CRL 41 789 or CRL 41 790 intraperitoneally in distilled water, groups of 6 or 12 mice (male, CD1, Charles River, 18-22 g) are placed individually in a high vessel made of transparent glass, filled with water to a height of 6 cm. The total period of immobility between the beginning of the 3rd minute and the end of the 6th minute following immersion of the animal is noted.

[6] = Solubility of the product; format: physicochemical
[7] = Inhibition of binding at the site of dopamine reuptake IC50, rat striatum
[8] = Inhibition of binding at the site of dopamine reuptake Ki, rat striatum
[9] = rat striatum, read-out: Inhibition of binding at the site of dopamine reuptake IC50
[10] = rat striatum, read-out: Inhibition of binding at the site of dopamine reuptake Ki

T1 sequence (P23977 whole entry): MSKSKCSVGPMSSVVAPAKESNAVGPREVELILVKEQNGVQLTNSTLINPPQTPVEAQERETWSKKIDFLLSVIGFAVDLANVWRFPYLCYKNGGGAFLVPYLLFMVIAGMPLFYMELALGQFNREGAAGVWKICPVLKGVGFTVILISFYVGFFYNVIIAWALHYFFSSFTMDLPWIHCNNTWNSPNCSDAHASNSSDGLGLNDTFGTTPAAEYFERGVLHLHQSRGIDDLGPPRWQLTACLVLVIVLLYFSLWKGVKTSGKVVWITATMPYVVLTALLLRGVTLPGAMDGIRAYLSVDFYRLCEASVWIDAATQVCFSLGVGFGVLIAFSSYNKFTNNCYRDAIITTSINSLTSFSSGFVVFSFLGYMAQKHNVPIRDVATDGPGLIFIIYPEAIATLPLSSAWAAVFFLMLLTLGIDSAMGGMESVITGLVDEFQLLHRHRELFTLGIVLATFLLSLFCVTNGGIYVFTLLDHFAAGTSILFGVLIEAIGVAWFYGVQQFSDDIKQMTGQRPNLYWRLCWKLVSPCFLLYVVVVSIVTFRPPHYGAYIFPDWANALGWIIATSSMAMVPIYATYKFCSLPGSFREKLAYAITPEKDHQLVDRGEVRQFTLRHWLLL

Row | Structure (SMILES) | IC50 [1, 7] | Ki [1, 8] | LD0 (mice [2]) | LD100 (mice [2]) | IC50 [1, 9] | Ki [1, 10] | LD0 (mice [2]; hydrochloride) | LD100 (mice [2]; hydrochloride) | 3-methoxytyramine (3MT) concentration in the dialysate [3] | dopamine concentration in the dialysate [3] | solubility in ethanol [6] | solubility in ether [6] | solubility in ethyl acetate [6] | solubility in water [6] | solubility in methanol [6] | further results
1 | CC(C)(C)NCC(SCC(N)=O)c1ccc(Cl)c(Cl)c1 (racemic) [CRL 41 414, [α-(tert-butylaminomethyl)-3,4-dichlorobenzyl]thioacetamide] | 31 nM | 63 nM | 128 mg/kg | 256 mg/kg | – | – | – | – | – | – | – | – | – | – | – | –
2 | CC(C)(C)NCC(SCC(N)=O)c1ccc(Cl)c(Cl)c1 (single isomer, unassigned) [CRL 41 789, 1(-)-[α-(tert-butylaminomethyl)-3,4-dichlorobenzyl]thioacetamide hydrochloride] | – | – | – | – | 44 nM | 24 nM | 64 mg/kg | 256 mg/kg | significant increase | significant increase | soluble | insoluble | insoluble | soluble | – | DOPAC concentration in the dialysate [3]: without modification; HVA concentration in the dialysate [3]: without modification; stereotyped movements (rats; 16 and 32 mg/kg): appearance of intense and lasting stereotyped movements; locomotor activity (mice [4]; i.p., 2, 8 and 32 mg/kg): marked and statistically significant increase in the locomotor activity of the mice is observed, the increase rising with the dose; period of immobility (mice [5]; i.p., 0.5, 2, 8 and 32 mg/kg): a decrease in the period of immobility is observed, the decrease rising with the dose; period of immobility, significance of the effect (mice [5]; i.p., 8 and 32 mg/kg): marked and statistically significant
3 | CC(C)(C)NCC(SCC(N)=O)c1ccc(Cl)c(Cl)c1 (single isomer, unassigned) [CRL 41 790, d(+)-[α-(tert-butylaminomethyl)-3,4-dichlorobenzyl]thioacetamide hydrochloride] | – | – | – | – | 1100 nM | 620 nM | 128 mg/kg | 512 mg/kg | does not cause any modification | does not cause any modification | soluble | insoluble | insoluble | soluble | soluble | stereotyped movements (rats; even at the high dose of 128 mg/kg): does not cause the appearance of any stereotyped movement; locomotor activity (mice [4]; i.p., even at 64 mg/kg): does not give rise to any increase in the locomotor activity; period of immobility (mice [5]; i.p., even at the high dose of 64 mg/kg): does not give rise to any decrease in the period of immobility
4 | CCC(C)(C)NCC(SCC(N)=O)c1ccc(Cl)c(Cl)c1 (stereo not drawn) [CRL 42 059, [α-(tert-amylaminomethyl)-3,4-dichlorobenzyl]thioacetamide hydrochloride] | 74 nM | 46 nM | 30 mg/kg | 256 mg/kg | – | – | – | – | – | – | – | insoluble | insoluble | soluble | – | solubility in alcohols ([6]; alcohols): soluble
5 | NC(=O)CSC(CNC12CC3CC(CC(C3)C1)C2)c1ccc(Cl)c(Cl)c1 (stereo not drawn) [CRL 42 060, [α-(1-adamantylaminomethyl)-3,4-dichlorobenzyl]thioacetamide hemifumarate] | 40 nM | 44 nM | 128 mg/kg | 1024 mg/kg | – | – | – | – | – | – | – | insoluble | insoluble | insoluble | soluble | solubility in DMSO ([6]; DMSO): soluble
